± gives the standard deviation of the averaged measurements.
compound: C=CCNC1=C2C[C@@H](C)C[C@H](OC)[C@H](O)[C@@H](C)/C=C(\C)[C@H](OC(N)=O)[C@@H](OC)/C=C\C=C(/C)C(=O)NC(=CC1=O)C2=O [17-AAG]; experiment: surviving fraction relative to DMSO-only wells; higher = less growth inhibition; conditions: 50 nM; exposure time: 5 days
How it was run: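 Tumour cell lines were seeded in log phase at 250–500 cells per well into 384-well plates. Starting 24 hours later, inhibitors were present continuously for five days at 0.5, 1, 5, 10, 50, 100, 500 and 1000 nM. Surviving fraction, from CellTiter-Glo luminescence, is normalised to the median of DMSO-only wells. Three screens per line were required, with replicate Pearson r >0.7 and median Z' >0.3 for a line to be kept.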

Test System	surviving fraction
SUM149.B1*.S BREAST	0.201 ± 0.021
93VU HEADNECK	1.13 ± 0.099
LM7 BONE	0.188 ± 0.0075
143B BONE	0.651 ± 0.011
SUM159 BREAST	0.0997 ± 0.0055
SUM149 BREAST	0.0457 ± 0.0049
MDAMB361 BREAST	0.278 ± 0.023
SAOS2 BONE	0.215 ± 0.031
ASKA SYNOVIAL	0.206 ± 0.014
HCC1395 BREAST	1.21 ± 0.12
HCC1954 BREAST	0.0668 ± 0.012
CME SYNOVIAL	0.259 ± 0.033
VCAP PROSTATE	0.683 ± 0.066
YAMATO SYNOVIAL	1.22 ± 0.039
HCC202 BREAST	0.264 ± 0.053
HELA CERVIX	0.68 ± 0.092

Test System	surviving fraction
SG27 HEADNECK	1.31 ± 0.16
CAL72 BONE	1.15 ± 0.032
MDAMB134 BREAST	0.574 ± 0.018
C33A CERVIX	1.31 ± 0.068
SKBR3 BREAST	0.25 ± 0.018
MHM BONE	1.04 ± 0.02
VP229 BREAST	0.641 ± 0.089
SYO1 SYNOVIAL	0.488 ± 0.042
ZR751 BREAST	0.22 ± 0.022
KPD BONE	0.246 ± 0.018
SIHA CERVIX	0.581 ± 0.077
DU4475 BREAST	0.0277 ± 0.0047
BT549 BREAST	0.152 ± 0.028
COLO320DM LARGE INTESTINE	1.26 ± 0.41
T47D BREAST	0.928 ± 0.023
H23 LUNG	0.234 ± 0.0085

same assay, conditions: 100 nM; exposure time: 5 days

Test System	surviving fraction
SUM149.B1*.S BREAST	0.131 ± 0.018
93VU HEADNECK	0.119 ± 0.011
LM7 BONE	0.121 ± 0.0085
143B BONE	0.271 ± 0.0071
SUM159 BREAST	0.0537 ± 0.0086
SUM149 BREAST	0.034 ± 0.004
MDAMB361 BREAST	0.267 ± 0.015
SAOS2 BONE	0.0823 ± 0.004
ASKA SYNOVIAL	0.182 ± 0.02
HCC1395 BREAST	1.13 ± 0.18
HCC1954 BREAST	0.0498 ± 0.0053
CME SYNOVIAL	0.222 ± 0.015
VCAP PROSTATE	0.19 ± 0.018
YAMATO SYNOVIAL	0.735 ± 0.064
HCC202 BREAST	0.177 ± 0.021
HELA CERVIX	0.482 ± 0.038

Test System	surviving fraction
SG27 HEADNECK	1.1 ± 0.24
CAL72 BONE	0.953 ± 0.04
MDAMB134 BREAST	0.519 ± 0.011
C33A CERVIX	1.16 ± 0.1
SKBR3 BREAST	0.205 ± 0.013
MHM BONE	0.912 ± 0.048
VP229 BREAST	0.387 ± 0.042
SYO1 SYNOVIAL	0.183 ± 0.012
ZR751 BREAST	0.228 ± 0.032
KPD BONE	0.111 ± 0.011
SIHA CERVIX	0.211 ± 0.012
DU4475 BREAST	0.0283 ± 0.0051
BT549 BREAST	0.0433 ± 0.0042
COLO320DM LARGE INTESTINE	0.955 ± 0.16
T47D BREAST	0.747 ± 0.032
H23 LUNG	0.11 ± 0.014

same assay, conditions: 500 nM; exposure time: 5 days

Test System	surviving fraction
SUM149.B1*.S BREAST	0.083 ± 0.019
93VU HEADNECK	0.092 ± 0.0062
LM7 BONE	0.0937 ± 0.0021
143B BONE	0.0855 ± 0.00071
SUM159 BREAST	0.053 ± 0.0046
SUM149 BREAST	0.0233 ± 0.0023
MDAMB361 BREAST	0.324 ± 0.014
SAOS2 BONE	0.069 ± 0.0087
ASKA SYNOVIAL	0.185 ± 0.011
HCC1395 BREAST	0.899 ± 0.15
HCC1954 BREAST	0.0425 ± 0.0042
CME SYNOVIAL	0.239 ± 0.029
VCAP PROSTATE	0.167 ± 0.016
YAMATO SYNOVIAL	0.357 ± 0.0093
HCC202 BREAST	0.171 ± 0.038
HELA CERVIX	0.219 ± 0.015

Test System	surviving fraction
SG27 HEADNECK	0.274 ± 0.044
CAL72 BONE	0.249 ± 0.015
MDAMB134 BREAST	0.524 ± 0.012
C33A CERVIX	1.061 ± 0.0074
SKBR3 BREAST	0.177 ± 0.019
MHM BONE	0.262 ± 0.023
VP229 BREAST	0.101 ± 0.013
SYO1 SYNOVIAL	0.0407 ± 0.0017
ZR751 BREAST	0.213 ± 0.013
KPD BONE	0.0627 ± 0.0015
SIHA CERVIX	0.171 ± 0.0082
DU4475 BREAST	0.027 ± 0.0066
BT549 BREAST	0.0447 ± 0.0045
COLO320DM LARGE INTESTINE	0.505 ± 0.032
T47D BREAST	0.4288 ± 0.004
H23 LUNG	0.0333 ± 0.0011

same assay, conditions: 1000 nM; exposure time: 5 days

Test System	surviving fraction
SUM149.B1*.S BREAST	0.0832 ± 0.014
93VU HEADNECK	0.0827 ± 0.005
LM7 BONE	0.0923 ± 0.0068
143B BONE	0.0855 ± 0.00071
SUM159 BREAST	0.0527 ± 0.01
SUM149 BREAST	0.0237 ± 0.00058
MDAMB361 BREAST	0.313 ± 0.038
SAOS2 BONE	0.0783 ± 0.0058
ASKA SYNOVIAL	0.226 ± 0.0099
HCC1395 BREAST	0.803 ± 0.1
HCC1954 BREAST	0.045 ± 0.0064
CME SYNOVIAL	0.306 ± 0.032
VCAP PROSTATE	0.183 ± 0.03
YAMATO SYNOVIAL	0.318 ± 0.0064
HCC202 BREAST	0.161 ± 0.027
HELA CERVIX	0.0948 ± 0.0088

Test System	surviving fraction
SG27 HEADNECK	0.111 ± 0.014
CAL72 BONE	0.234 ± 0.011
MDAMB134 BREAST	0.47 ± 0.018
C33A CERVIX	0.124 ± 0.016
SKBR3 BREAST	0.173 ± 0.0038
MHM BONE	0.184 ± 0.0051
VP229 BREAST	0.0917 ± 0.012
SYO1 SYNOVIAL	0.0322 ± 0.0014
ZR751 BREAST	0.207 ± 0.024
KPD BONE	0.0607 ± 0.0045
SIHA CERVIX	0.18 ± 0.017
DU4475 BREAST	0.0267 ± 0.0029
BT549 BREAST	0.0467 ± 0.0025
COLO320DM LARGE INTESTINE	0.286 ± 0.048
T47D BREAST	0.425 ± 0.0062
H23 LUNG	0.0323 ± 0.0025

Source: the supplement of paper PMC6045584
